# Experimental data: patent US9663473B2 (Actelion Pharmaceuticals Ltd, priority 2013, dated 2017)
# Counter-ions that a name gives are not always drawn.
# Biological target: T1, recombinant human ALX receptor (Homo sapiens, UniProt P25090)
# T1 construct: expressed in transfected cells; host or cells: HEK293 (HEK293-hALXR-Gα16)
# T1 sequence (P25090 1-351): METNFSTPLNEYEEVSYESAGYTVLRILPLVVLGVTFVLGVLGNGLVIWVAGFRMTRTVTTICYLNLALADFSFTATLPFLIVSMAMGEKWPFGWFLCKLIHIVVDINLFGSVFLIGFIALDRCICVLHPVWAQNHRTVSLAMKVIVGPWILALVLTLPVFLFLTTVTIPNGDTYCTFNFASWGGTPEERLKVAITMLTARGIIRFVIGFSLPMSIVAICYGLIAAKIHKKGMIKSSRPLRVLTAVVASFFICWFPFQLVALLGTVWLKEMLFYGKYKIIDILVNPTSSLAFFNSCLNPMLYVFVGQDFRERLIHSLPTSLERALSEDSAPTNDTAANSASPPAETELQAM
# Assay: Intracellular calcium measurements (FLIPR), ALX receptor agonistic activity
# Format: cell-based
# Conditions: HEK293-hALXR-Gα16 cells, Fluo-4 calcium signal, normalized to WKYMVm 10 nM
# Summary of the method: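 Agonist-induced calcium flux was read by FLIPR (488/540 nm) as baseline-subtracted peak emission, expressed relative to WKYMVm at 10 nM final. Cells used: HEK293-hALXR-Gα16, dye-loaded 60 min at 37° C. with 1 μM Fluo-4 AM before compound dose-response addition.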
row,Compound,EC50 [µM]
1,"COc1ccc(C[C@@H](NC(=O)N[C@H](CO)Cc2ccccc2)c2nc3ccccc3[nH]2)cc1 [Example 212, 1-((R)-1-(1H-Benzo[d]imidazol-2-yl)-2-(4-methoxyphenyl)ethyl)-3-((S)-1-hydroxy-3-phenylpropan-2-yl)urea]",0.0028
2,"COc1ccc(CC(NC(=O)NCC2CCCC2)c2nc3ccccc3[nH]2)cc1 (stereo not shown) [Example 52, 1-(1-(1H-Benzo[d]imidazol-2-yl)-2-(4-methoxyphenyl)ethyl)-3-(cyclopentylmethyl)urea]",0.221
3,"COc1ccc(C[C@@H](NC(=O)N2CCC3C2CCN3C(=O)OC(C)(C)C)c2nc3ccccc3[nH]2)cc1 (stereo partly drawn) [Example 121, tert-Butyl 4-(((R)-1-(1H-benzo[d]imidazol-2-yl)-2-(4-methoxyphenyl)ethyl)carbamoyl)hexahydropyrrolo[3,2-b]pyrrole-1 (2H)-carboxylate]",0.704
4,"COc1ccc(C[C@@H](NC(=O)N[C@@H](C)c2cccc(OC)c2)c2nc3ccccc3[nH]2)cc1 [Example 323, 1-((R)-1-(1H-Benzo[d]imidazol-2-yl)-2-(4-methoxyphenyl)ethyl)-3-((S)-1-(3-methoxyphenyl)ethyl)urea]",0.044
5,"COc1ccc(C[C@@H](NC(=O)NCc2nccnc2OCC(F)(F)F)c2nc3ccccc3[nH]2)cc1 [Example 217, (R)-1-(1-(1H-Benzo[d]imidazol-2-yl)-2-(4-methoxyphenyl)ethyl)-3-((3-(2,2,2-trifluoroethoxy)pyrazin-2-yl)methyl)urea]",0.019
6,"CCc1ccc(CC(NC(=O)N[C@H]2CC[C@H](O)CC2)c2nc3cc(F)ccc3[nH]2)cc1 (single isomer, unassigned; ent-2) [Example 374, 1-(2-(4-Ethylphenyl)-1-(5-fluoro-1H-benzo[d]imidazol-2-yl)ethyl)-3-(trans-4-hydroxycyclohexyl)urea (ent-2)]",0.597
7,"COc1ccc(C[C@@H](NC(=O)NC(C)(C)c2ccccc2)c2nc3ccccc3[nH]2)cc1 [Example 350, (R)-1-(1-(1H-Benzo[d]imidazol-2-yl)-2-(4-methoxyphenyl)ethyl)-3-(2-phenylpropan-2-yl)urea]",0.288
8,"COc1ccc(C[C@@H](NC(=O)NC2CC=CC2)c2nc3ccccc3[nH]2)cc1 [Example 13, (R)-1-(1-(1H-Benzo[d]imidazol-2-yl)-2-(4-methoxyphenyl)ethyl)-3-(cyclopent-3-en-1-yl)urea hydrochloride]",0.027
9,"COc1ccc(C[C@@H](NC(=O)N[C@H]2CC[C@H](O)C2)c2nc3ccccc3[nH]2)cc1 (relative stereo) [Example 172, 1-((R)-1-(1H-Benzo[d]imidazol-2-yl)-2-(4-methoxyphenyl)ethyl)-3-((1 S*,3S*)-3-hydroxycyclopentyl)urea]",0.015
10,"COc1ccc(C[C@@H](NC(=O)NC2(c3ccc(C)cc3)CC2)c2nc3ccccc3[nH]2)cc1 [Example 277, (R)-1-(1-(1H-Benzo[d]imidazol-2-yl)-2-(4-methoxyphenyl)ethyl)-3-(1-(p-tolyl)cyclopropyl)urea]",0.082
11,"CC(F)(F)c1ccc(CC(NC(=O)N[C@H]2CC[C@H](O)CC2)c2nc3ccccc3[nH]2)cc1 (relative stereo) [Example 393, 1-(1-(1H-Benzo[d]imidazol-2-yl)-2-(4-(1,1-difluoroethyl)phenyl)ethyl)-3-(trans-4-hydroxycyclohexyl)urea]",0.0039
12,"COc1ccc(CC(NC(=O)Nc2ccnn2-c2ccc(C)cc2)c2nc3ccccc3[nH]2)cc1 (stereo not shown) [Example 420, 1-(1-(1H-benzo[d]imidazol-2-yl)-2-(4-methoxyphenyl)ethyl)-3-(1-(p-tolyl)-1H-pyrazol-5-yl)urea]",0.207
13,"COc1ccc(CC(NC(=O)NCc2ccc(Cl)cc2)c2nc3ccccc3[nH]2)cc1 (stereo not shown) [Example 43, 1-(1-(1H-Benzo[d]imidazol-2-yl)-2-(4-methoxyphenyl)ethyl)-3-(4-chlorobenzyl)urea]",0.611
14,"COc1ccc(C[C@@H](NC(=O)N[C@@H]2CCN(C(C)=O)C2)c2nc3ccccc3[nH]2)cc1 [Example 142, 1-((R)-1-(1H-Benzo[d]imidazol-2-yl)-2-(4-methoxyphenyl)ethyl)-3-((R)-1-acetylpyrrolidin-3-yl)urea]",0.306
15,"COc1ccc(C[C@@H](NC(=O)NC2CC2)c2nc3ccccc3[nH]2)cc1 [Example 19, (R)-1-(1-(1H-Benzo[d]imidazol-2-yl)-2-(4-methoxyphenyl)ethyl)-3-cyclopropylurea]",0.6
16,"COc1ccc(C[C@@H](NC(=O)NC2CCN(C(C)=O)CC2)c2nc3ccccc3[nH]2)cc1 [Example 138, (R)-1-(1-(1H-Benzo[d]imidazol-2-yl)-2-(4-methoxyphenyl)ethyl)-3-(1-acetylpiperidin-4-yl)urea]",0.789
17,"COc1ccc(C[C@@H](NC(=O)NC2(c3ccc(Cl)cc3)CC2)c2nc3ccccc3[nH]2)cc1 [Example 355, (R)-1-(1-(1H-Benzo[d]imidazol-2-yl)-2-(4-methoxyphenyl)ethyl)-3-(1-(4-chlorophenyl)cyclopropyl)urea]",0.157
18,"COc1ccc(CC(NC(=O)NCC(F)(F)F)c2nc3ccccc3[nH]2)cc1 (stereo not shown) [Example 9, 1-(1-(1H-Benzo[d]imidazol-2-yl)-2-(4-methoxyphenyl)ethyl)-3-(2,2,2-trifluoroethyl)urea]",0.45
19,"COc1ccc(C[C@@H](NC(=O)NC2CCc3cc(OC)c(OC)cc32)c2nc3ccccc3[nH]2)cc1 (stereo partly drawn) [Example 348, 1-((R)-1-(1H-Benzo[d]imidazol-2-yl)-2-(4-methoxyphenyl)ethyl)-3-(5,6-dimethoxy-2,3-dihydro-1H-inden-1-yl)urea]",0.026
20,"O=C(N[C@H](Cc1ccc(Br)cc1)c1nc2ccccc2[nH]1)NC12CCC(O)(CC1)CC2 [Example 220, (R)-1-(1-(1H-Benzo[d]imidazol-2-yl)-2-(4-bromophenyl)ethyl)-3-(4-hydroxybicyclo[2.2.2]octan-1-yl)urea]",0.0049
21,"COc1ccc(CC(NC(=O)NC23CCC(O)(CC2)CC3)c2nc3ccccc3[nH]2)c(F)c1 (stereo not shown) [Example 233, 1-(1-(1H-Benzo[d]imidazol-2-yl)-2-(2-fluoro-4-methoxyphenyl)ethyl)-3-(4-hydroxybicyclo[2.2.2]octan-1-yl)urea]",0.0037
22,"COc1ccc(C(C)C(NC(=O)N[C@H]2CC[C@H](O)CC2)c2nc3ccccc3[nH]2)cc1 (relative stereo) [Example 395, 1-(1-(1H-Benzo[d]imidazol-2-yl)-2-(4-methoxyphenyl)propyl)-3-(trans-4-hydroxycyclohexyl)urea]",0.0064
23,"COc1ccc(C[C@@H](NC(=O)NCCc2ccccc2C)c2nc3ccccc3[nH]2)cc1 [Example 63, (R)-1-(1-(1H-Benzo[d]imidazol-2-yl)-2-(4-methoxyphenyl)ethyl)-3-(2-methylphenethyl)urea hydrochloride]",0.105
24,"COc1ccc(C[C@@H](NC(=O)NCCc2ccccc2Cl)c2nc3ccccc3[nH]2)cc1 [Example 56, (R)-1-(1-(1H-Benzo[d]imidazol-2-yl)-2-(4-methoxyphenyl)ethyl)-3-(2-chlorophenethyl)urea hydrochloride]",0.109
25,"COc1ccc(C[C@@H](NC(=O)NC(c2ccccn2)C(F)(F)F)c2nc3ccccc3[nH]2)cc1 (stereo partly drawn) [Example 292, 1-((R)-1-(1H-Benzo[d]imidazol-2-yl)-2-(4-methoxyphenyl)ethyl)-3-(2,2,2-trifluoro-1-(pyridin-2-yl)ethyl)urea]",0.081
